Measurements taken from US20050130252A1, “Stabilized susceptibility tests of aerobic pathogens” (Wyeth Holdings Corporation, priority 2003, published 2005).
In brackets after ≈: the same amount, converted by molar mass. Read-outs that look alike come from different tables or passages of the source.

System: S. aureus ATCC 29213
Experiment: Broth microdilution MIC
Assay type: cell-based, Staphylococcus aureus
Details: Staphylococcus aureus
Protocol: The process for preparing susceptibility test medium are the following steps: • a. Preparing Mueller Hinton Broth II medium by adding 22 grams powdered media to 1.0 liter distilled water; • b. Autoclaving (121° C., 15 psi, 15 minutes) and cooling the medium; • c. Adding Oxyrase® up to about 10% final volume and keeping at 35-37° C. in an incubator for 30 minutes; • d. Adding about 50 μL to each well of a 96 well microtiter plate; • e. Weighing drug and adding broth to drug to bring up to about (standard 128 μg/ml); • f. Adding 50 μL of the drug to the first column of the titer plate; • g. Diluting by two-fold serial diluting across or down the plate. • h. Preparing a Prompt™ inoculum at 10^8 CFU/ml; • i. Diluting inoculum 1:100 in the broth at […] in 9.9 ml (1:100) is 10^6 colony forming units (CFU) forming the adjusted inoculum; • j. Adding 50 μL of the adjusted inoculum to the wells of the microtiter plate; • k. Incubating the plates at 35-37° C. for 18-22 hours; and • l. Reading, with the unaided eye, the MIC.
The in vitro activities of tigecycline and control antibiotics were determined by the broth microdilution method as recommended by the NCCLS. (National Committee for Clinical Laboratory Standards, 2003. Methods for Dilution Antimicrobial Susceptibility Tests for Bacteria That Grow Aerobically; Approved Standards: M7-A6, Sixth ed, vol. 23., National Committee for Clinical Laboratory Standards Wayne, Pa.) was used for the standard procedures. MBH with 5% lysed horse blood was used for testing S. pneumoniae and Haemophilus Test Medium was used for testing H. influenzae. Oxyrase® (Oxyrase Inc, Mansfield, Ohio) was used according to the manufacturer's instructions by adding 1 ml of Oxyrase® to 50 ml of media. Media age studies were performed by preparing MHB in multiple flasks, then storing the media under various conditions. MICs were usually performed in duplicate on each day of testing. Storage under anaerobic conditions was conducted in an anaerobic chamber (MACS MG 1000, Don Whitley Scientific LTD). The pH of the media was determined by pH meter (Corning 430). A comparison of the in vitro activity of tigecycline by agar and broth dilution methodolgies with and without Oxyrase® against clinical isolates is shown in Table 1.

Work on `CN(C)c1cc(NC(=O)CNC(C)(C)C)c(O)c2c1C[C@H]1C[C@H]3[C@H](N(C)C)C(O)=C(C(N)=O)C(=O)[C@@]3(O)C(O)=C1C2=O` [Tigecycline, tigecycline] yielded an MIC (ATCC29213, 0 h, S. aureus ATCC 29213, Day 0, Pre-prepared media, room temperature, N = 6) of 0.25 µg/mL (≈ 0.427 µM), an MIC (ATCC29213, 0 h, S. aureus ATCC 29213, Day 0, media Fresh from Powder 2° C., N = 6) of 0.12 µg/mL (≈ 0.205 µM) and an MIC (ATCC29213, 0 h, S. aureus ATCC 29213, Day 0, media Fresh from Powder, room temperature, N = 6) of 0.06 to 0.12 µg/mL (≈ 0.102 to 0.205 µM). The MIC (ATCC29213, 24 h, S. aureus ATCC 29213, Day 1, Pre-prepared media, room temperature, N = 6) was 0.25 µg/mL (≈ 0.427 µM), the MIC (ATCC29213, 24 h, S. aureus ATCC 29213, Day 1, media Fresh from Powder 2° C., N = 6) was 0.12 µg/mL (≈ 0.205 µM) and the MIC (ATCC29213, 24 h, S. aureus ATCC 29213, Day 1, media Fresh from Powder, room temperature, N = 6) was 0.12 µg/mL (≈ 0.205 µM). It also gave an MIC (ATCC29213, 168 h, S. aureus ATCC 29213, Day 7, Pre-prepared media, room temperature, N = 6) of 0.25 µg/mL (≈ 0.427 µM), an MIC (ATCC29213, 168 h, S. aureus ATCC 29213, Day 7, media Fresh from Powder 2° C., N = 6) of 0.12 µg/mL (≈ 0.205 µM) and an MIC (ATCC29213, 168 h, S. aureus ATCC 29213, Day 7, media Fresh from Powder, room temperature, N = 6) of 0.25 µg/mL (≈ 0.427 µM). For the same compound, the MIC (ATCC29213, 336 h, S. aureus ATCC 29213, Day 14, Pre-prepared media, room temperature, N = 6) was 0.25 to 0.5 µg/mL (≈ 0.427 to 0.854 µM), the MIC (ATCC29213, 336 h, S. aureus ATCC 29213, Day 14, media Fresh from Powder 2° C., N = 6) was 0.25 to 0.5 µg/mL (≈ 0.427 to 0.854 µM) and the MIC (ATCC29213, 336 h, S. aureus ATCC 29213, Day 14, media Fresh from Powder, room temperature, N = 6) was 0.25 to 0.5 µg/mL (≈ 0.427 to 0.854 µM). The MIC (ATCC29213, 336 h, read-out: Minimal Inhibitory Concentration, S. aureus ATCC 29213, media Aged Aerobic (2 weeks at RT under room air), N = 4) was 0.25 to 0.5 µg/mL (≈ 0.427 to 0.854 µM), the MIC (ATCC29213, 504 h, S. aureus ATCC 29213, Day 21, Pre-prepared media, room temperature, N = 6) was 0.5 µg/mL (≈ 0.854 µM) and the MIC (ATCC29213, 504 h, S. aureus ATCC 29213, Day 21, media Fresh from Powder 2° C., N = 6) was 0.25 to 0.5 µg/mL (≈ 0.427 to 0.854 µM). The MIC (ATCC29213, 504 h, S. aureus ATCC 29213, Day 21, media Fresh from Powder, room temperature, N = 6) was 0.25 µg/mL (≈ 0.427 µM), the MIC (ATCC29213, 672 h, S. aureus ATCC 29213, Day 28, Pre-prepared media, room temperature, N = 6) was 0.25 to 0.5 µg/mL (≈ 0.427 to 0.854 µM) and the MIC (ATCC29213, 672 h, S. aureus ATCC 29213, Day 28, media Fresh from Powder 2° C., N = 6) was 0.25 µg/mL (≈ 0.427 µM). For the same compound, the MIC (ATCC29213, 672 h, S. aureus ATCC 29213, Day 28, media Fresh from Powder, room temperature, N = 6) was 0.25 µg/mL (≈ 0.427 µM), the MIC (ATCC29213, read-out: Minimal Inhibitory Concentration (modal value), S. aureus ATCC 29213, Aged Media + Oxyrase, N = 8) was 0.25 µg/mL and the MIC (ATCC29213, read-out: Minimal Inhibitory Concentration (modal value), S. aureus ATCC 29213, Aged media, N = 8) was 0.5 µg/mL (≈ 0.854 µM). The MIC (ATCC29213, read-out: Minimal Inhibitory Concentration (modal value), S. aureus ATCC 29213, Fresh Media + Oxyrase, N = 8) was 0.12 µg/mL, the MIC (ATCC29213, read-out: Minimal Inhibitory Concentration (modal value), S. aureus ATCC 29213, Freshly Prepared Media, N = 8) was 0.25 µg/mL (≈ 0.427 µM) and the MIC (ATCC29213, read-out: Minimal Inhibitory Concentration, S. aureus ATCC 29213, Aged Media + Oxyrase, N = 8) was 0.12 to 0.25 µg/mL. For the same compound, the MIC (ATCC29213, read-out: Minimal Inhibitory Concentration, S. aureus ATCC 29213, Aged media, N = 8) was 0.5 µg/mL (≈ 0.854 µM), the MIC (ATCC29213, read-out: Minimal Inhibitory Concentration, S. aureus ATCC 29213, Commercially Prepared media, N = 4) was 0.25 µg/mL (≈ 0.427 µM) and the MIC (ATCC29213, read-out: Minimal Inhibitory Concentration, S. aureus ATCC 29213, Fresh Media + Oxyrase, N = 8) was 0.12 to 0.25 µg/mL. The MIC (ATCC29213, read-out: Minimal Inhibitory Concentration, S. aureus ATCC 29213, Freshly Prepared Media, N = 8) was 0.25 µg/mL (≈ 0.427 µM).
